Patent US11866430B2, “Naphthyridinone compounds useful as T cell activators” (priority 2018, dated 2024)
Where two headings read alike, the source gives them in different places.

How the values were obtained:
[1] = target: human DGKζ (Homo sapiens (Human), UniProt Q13574); assay: DGKζ assay (detergent/lipid micelle substrate); type: biochemical; conditions: detergent/lipid micelle substrate; read-out: DGKζ IC50
In short: (§1)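 Full-length human DGKα or DGKζ (C-terminal His tag, Sf9-expressed; 20 nM 4× stock) was preincubated 10 min at room temperature with PS/DAG octyl glucoside micelles in MOPS pH 7.5 buffer with MgCl2, CaCl2 and DTT. It was then started with ATP (300 uM addition) and run for 1 hr, with ADP-Glo luminescence read-out.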

[2] = target: human DGKα (Homo sapiens (Human), UniProt P23743); assay: biochemical; conditions: detergent/lipid micelle substrate; read-out: DGKα IC50
In short: as §1

[3] = tested on: pre-activated CD4 T cells and Raji cells; assay: Raji CD4 T Cell IL2 Assay; type: cell-based

Chain of human DGKα (P23743 other isoform, or with tags, fused parts or gaps): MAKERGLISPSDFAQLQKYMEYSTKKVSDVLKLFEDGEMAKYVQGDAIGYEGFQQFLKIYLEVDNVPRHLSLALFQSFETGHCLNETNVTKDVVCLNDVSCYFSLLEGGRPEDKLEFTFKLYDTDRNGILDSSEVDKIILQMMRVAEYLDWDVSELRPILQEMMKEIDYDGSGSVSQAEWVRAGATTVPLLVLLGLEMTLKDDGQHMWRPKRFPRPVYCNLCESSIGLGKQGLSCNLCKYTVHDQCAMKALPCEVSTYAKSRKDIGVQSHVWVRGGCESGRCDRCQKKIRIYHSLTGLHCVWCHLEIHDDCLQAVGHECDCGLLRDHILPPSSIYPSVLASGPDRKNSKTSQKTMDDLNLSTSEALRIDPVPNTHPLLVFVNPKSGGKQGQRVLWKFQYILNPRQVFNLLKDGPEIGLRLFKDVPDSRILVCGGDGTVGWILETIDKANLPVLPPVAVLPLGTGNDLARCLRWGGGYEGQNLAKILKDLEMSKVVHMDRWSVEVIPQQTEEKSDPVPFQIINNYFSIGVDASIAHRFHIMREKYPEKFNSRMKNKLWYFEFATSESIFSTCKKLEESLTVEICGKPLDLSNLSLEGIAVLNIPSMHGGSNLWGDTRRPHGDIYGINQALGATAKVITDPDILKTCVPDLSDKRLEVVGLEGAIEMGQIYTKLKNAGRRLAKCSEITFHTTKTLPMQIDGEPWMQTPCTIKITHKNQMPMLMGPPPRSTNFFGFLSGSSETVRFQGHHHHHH
Chain of human DGKζ (Q13574 other isoform, or with tags, fused parts or gaps): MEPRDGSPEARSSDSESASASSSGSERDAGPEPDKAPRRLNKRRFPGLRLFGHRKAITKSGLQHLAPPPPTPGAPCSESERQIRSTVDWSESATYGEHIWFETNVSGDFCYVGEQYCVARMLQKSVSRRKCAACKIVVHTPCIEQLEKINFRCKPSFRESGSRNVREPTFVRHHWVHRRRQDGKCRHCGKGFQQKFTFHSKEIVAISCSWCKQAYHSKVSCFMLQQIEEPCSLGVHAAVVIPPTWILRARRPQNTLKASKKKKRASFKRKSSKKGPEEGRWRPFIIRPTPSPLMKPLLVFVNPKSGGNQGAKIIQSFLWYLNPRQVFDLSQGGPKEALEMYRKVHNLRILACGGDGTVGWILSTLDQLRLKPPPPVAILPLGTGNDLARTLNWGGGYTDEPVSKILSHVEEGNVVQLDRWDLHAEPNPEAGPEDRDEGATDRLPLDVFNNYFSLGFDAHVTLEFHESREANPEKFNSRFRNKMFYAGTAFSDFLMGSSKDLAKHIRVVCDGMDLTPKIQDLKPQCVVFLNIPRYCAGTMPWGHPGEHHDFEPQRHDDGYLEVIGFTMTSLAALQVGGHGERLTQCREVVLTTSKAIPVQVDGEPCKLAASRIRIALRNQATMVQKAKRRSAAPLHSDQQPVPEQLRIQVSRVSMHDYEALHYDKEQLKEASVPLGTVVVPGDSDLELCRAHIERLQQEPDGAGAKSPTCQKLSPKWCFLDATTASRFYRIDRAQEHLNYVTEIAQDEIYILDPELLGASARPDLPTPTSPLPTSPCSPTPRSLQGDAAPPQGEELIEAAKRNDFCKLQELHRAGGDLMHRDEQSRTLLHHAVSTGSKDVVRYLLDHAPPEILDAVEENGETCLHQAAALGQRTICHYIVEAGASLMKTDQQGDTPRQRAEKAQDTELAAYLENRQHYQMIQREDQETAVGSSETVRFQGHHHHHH

SMILES: Cn1c(=O)c(C#N)c(N2CCN(CC(O)c3ccc(F)cc3)CC2)c2nc(Br)ccc21 (single isomer, unassigned) [Example 30, 6-bromo-4-{4-[2-(4-fluorophenyl)-2-hydroxyethyl]piperazin-1-yl}-1-methyl-2-oxo-1,2-dihydro-1,5-naphthyridine-3-carbonitrile]
- IC50 [1]: 140000 nM
- IC50 [2]: 1800 nM
- IC50 [3]: 1100 nM

SMILES: COc1cccc(C)c1C(c1ccc(F)cc1)N1CCN(c2c([N+](=O)[O-])c(=O)n(C)c3ccc(Br)nc23)CC1 (single isomer, unassigned) [Example 60, 6-bromo-4-(4-((4-fluorophenyl)(2-methoxy-6-methylphenyl)methyl)piperazin-1-yl)-1-methyl-3-nitro-1,5-naphthyridin-2(1H)-one]
- IC50 [1]: > 240000 nM
- IC50 [2]: 32000 nM
- IC50 [3]: 1600 nM

SMILES: CCN(C)c1cccc(CN2CCN(c3c(C#N)c(=O)n(C)c4ccc(Cl)nc34)CC2)c1 [Example 199, 6-chloro-4-(4-(3-(ethyl(methyl)amino)benzyl)piperazin-1-yl)-1-methyl-2-oxo-1,2-dihydro-1,5-naphthyridine-3-carbonitrile]
- IC50 [1]: > 240000 nM
- IC50 [2]: 480 nM
- IC50 ([3]; Homo sapiens, Raji): 380 nM

SMILES: C=CCOc1cccc(C)c1C(c1ccc(F)cc1)N1CCN(c2c([N+](=O)[O-])c(=O)n(C)c3ccc(Br)nc23)CC1 (single isomer, unassigned) [Example 96, 4-(4-((2-(allyloxy)-6-methylphenyl)(4-fluorophenyl)methyl)piperazin-1-yl)-6-bromo-1-methyl-3-nitro-1,5-naphthyridin-2(1-H)-one]
- IC50 [1]: 53000 nM
- IC50 [2]: 87000 nM
- IC50 [3]: 360 nM

SMILES: C#CCn1c(=O)c(C#N)c(N2CCN(C(c3ccc(F)cc3)c3ccccc3O)CC2)c2nc(Br)ccc21 (single isomer, unassigned) [Example 106, 6-bromo-4-(4-((4-fluorophenyl)(2-hydroxyphenyl)methyl)piperazin-1-yl)-2-oxo-1-(prop-2-yn-1-yl)-1,2-dihydro-1,5-naphthyridine-3-carbonitrile]
- IC50 [1]: 2000 nM
- IC50 [2]: 960 nM
- IC50 ([3]; Homo sapiens, Raji): 2.4 nM

SMILES: C#CCOc1ccccc1C(c1ccc(F)cc1)N1CCN(c2c([N+](=O)[O-])c(=O)n(C)c3ccc(C#N)nc23)CC1 (single isomer, unassigned) [Example 101, 8-(4-((4-fluorophenyl)(2-(prop-2-yn-1-yloxy)phenyl)methyl)piperazin-1-yl)-5-methyl-7-nitro-6-oxo-5,6-dihydro-1,5-naphthyridine-2-carbonitrile]
- IC50 [1]: 27000 nM
- IC50 [2]: 15000 nM
- IC50 ([3]; Homo sapiens, Raji): 190 nM

SMILES: CN(C)C(=O)c1ccc2c(n1)c(N1CCN(C(c3ccc(F)cc3)c3ccc(F)cc3)CC1)c(C#N)c(=O)n2C [Example 231, 8-(4-(bis(4-fluorophenyl)methyl)piperazin-1-yl)-7-cyano-N,N,5-trimethyl-6-oxo-5,6-dihydro-1,5-naphthyridine-2-carboxamide]
- IC50 [1]: > 240000 nM
- IC50 [2]: 170000 nM
- IC50 ([3]; Homo sapiens, Raji): 3000 nM

SMILES: Cn1c(=O)c(C#N)c(N2CCN(Cc3cc(O)cc(Cl)c3)CC2)c2nc(Cl)ccc21 [Example 345, 6-chloro-4-{4-[(3-chloro-5-hydroxyphenyl)methyl]piperazin-1-yl}-1-methyl-2-oxo-1,2-dihydro-1,5-naphthyridine-3-carbonitrile]
- IC50 [1]: > 240000 nM
- IC50 [2]: 4600 nM
- IC50 ([3]; Homo sapiens, Raji): 990 nM

SMILES: Cn1c(=O)c(C#N)c(N2CCN(Cc3ccc(O)c(C(F)(F)F)c3)CC2)c2nc(Cl)ccc21 [Example 355, 6-chloro-4-(4-{[4-hydroxy-3-(trifluoromethyl)phenyl]methyl}piperazin-1-yl)-1-methyl-2-oxo-1,2-dihydro-1,5-naphthyridine-3-carbonitrile]
- IC50 [1]: > 240000 nM
- IC50 [2]: 7100 nM
- IC50 ([3]; Homo sapiens, Raji): 2800 nM

SMILES: Cn1c(=O)c(C#N)c(N2CCN(Cc3ccccc3)CC2)c2nc(Cl)ccc21 [Example 343, 4-(4-benzylpiperazin-1-yl)-6-chloro-1-methyl-2-oxo-1,2-dihydro-1,5-naphthyridine-3-carbonitrile]
- IC50 [1]: > 81000 nM
- IC50 [2]: 68 nM
- IC50 ([3]; Homo sapiens, Raji): 810 nM

SMILES: Cc1ccc2c(n1)c(N1CCN(C(c3ccc(F)cc3)c3ccc(F)cc3)CC1)cc(=O)n2C [Example 427, 4-{4-[bis(4-fluorophenyl)methyl]piperazin-1-yl}-1,6-dimethyl-1,2-dihydro-1,5-naphthyridin-2-one]
- IC50 [1]: > 240000 nM
- IC50 [2]: 150000 nM
- IC50 ([3]; Homo sapiens, Raji): 2400 nM

SMILES: COCCn1c(=O)c([N+](=O)[O-])c(N2CCN(C(C)c3ccc(F)cc3)CC2)c2nc(C#N)ccc21 (single isomer, unassigned) [Example 150, 8-(4-(1-(4-fluorophenyl)ethyl)piperazin-1-yl)-5-(2-methoxyethyl)-7-nitro-6-oxo-5,6-dihydro-1,5-naphthyridine-2-carbonitrile]
- IC50 [1]: 88000 nM
- IC50 [2]: 73000 nM
- IC50 [3]: 510 nM

SMILES: Cn1c(=O)c(C#N)c(N2CCN(Cc3ccc(O)c(Cl)c3)CC2)c2nc(Cl)ccc21 [Example 354, 6-chloro-4-{4-[(3-chloro-4-hydroxyphenyl)methyl]piperazin-1-yl}-1-methyl-2-oxo-1,2-dihydro-1,5-naphthyridine-3-carbonitrile]
- IC50 [1]: > 240000 nM
- IC50 [2]: 110 nM
- IC50 ([3]; Homo sapiens, Raji): 2500 nM

SMILES: COc1ccc2c(c1)C(N1CCN(c3c([N+](=O)[O-])c(=O)n(C)c4ccc(C#N)nc34)CC1)CC2 (stereo not drawn) [Example 46, 8-(4-(6-methoxy-2,3-dihydro-1H-inden-1-yl)piperazin-1-yl)-5-methyl-7-nitro-6-oxo-5,6-dihydro-1,5-naphthyridine-2-carbonitrile]
- IC50 [1]: 2700 nM
- IC50 [2]: 8500 nM
- IC50 ([3]; Homo sapiens, Raji): 130 nM

SMILES: Cn1c(=O)c(C#N)c(N2CCN(Cc3ccccc3O)CC2)c2nc(C#N)ccc21 [Example 317, 8-{4-[(2-hydroxyphenyl)methyl]piperazin-1-yl}-5-methyl-6-oxo-5,6-dihydro-1,5-naphthyridine-2,7-dicarbonitrile]
- IC50 [1]: 34000 nM
- IC50 [2]: 160 nM
- IC50 ([3]; Homo sapiens, Raji): 290 nM

SMILES: Cn1c(=O)c(C#N)c(N2CCN(Cc3cc(F)cc(Cl)c3)CC2)c2nc(Cl)ccc21 [Example 324, 6-chloro-4-{4-[(3-chloro-5-fluorophenyl)methyl]piperazin-1-yl}-1-methyl-2-oxo-1,2-dihydro-1,5-naphthyridine-3-carbonitrile]
- IC50 [1]: > 240000 nM
- IC50 [2]: 190 nM
- IC50 ([3]; Homo sapiens, Raji): 350 nM

SMILES: C#CCOc1ccccc1C(c1ccc(F)cc1)N1CCN(c2c(C#N)c(=O)n(C)c3ccc(Cl)nc23)CC1 (stereo not drawn) [Example 39, 6-chloro-4-{4-[(4-fluorophenyl)[2-(prop-2-yn-1-yloxy)phenyl]methyl]piperazin-1-lv}-1-methyl-2-oxo-1,2-dihydro-1,5-naphthyridine-3-carbonitrile]
- IC50 [1]: > 240000 nM
- IC50 [2]: 50000 nM
- IC50 ([3]; Homo sapiens, Raji): 640 nM

SMILES: COc1ccc(CN2CCN(c3c(C#N)c(=O)n(C)c4ccc(Cl)nc34)CC2)cc1 [Example 341, 6-chloro-4-{4-[(4-methoxyphenyl)methyl]piperazin-1-yl}-1-methyl-2-oxo-1,2-dihydro-1,5-naphthyridine-3-carbonitrile]
- IC50 [1]: > 240000 nM
- IC50 [2]: 320 nM
- IC50 ([3]; Homo sapiens, Raji): 730 nM

SMILES: N#Cc1c(N2CCN(C(c3ccc(F)cc3)c3ccc(F)cc3)CC2)c2nc(Br)ccc2n(CC2CC2)c1=O [Example 161, 4-(4-(bis(4-fluorophenyl)methyl)piperazin-1-yl)-6-bromo-1-(cyclopropylmethyl)-2-oxo-1,2-dihydro-1,5-naphthyridine-3-carbonitrile]
- IC50 [1]: > 81000 nM
- IC50 [2]: > 240000 nM
- IC50 ([3]; Homo sapiens, Raji): 5700 nM

SMILES: N#CCn1c(=O)c(C#N)c(N2CCN(C(c3ccc(F)cc3)c3ccccc3O)CC2)c2nc(Br)ccc21 (stereo not drawn) [Example 157, 6-bromo-1-(cyanomethyl)-4-(4-((4-fluorophenyl)(2-hydroxyphenyl)methyl)piperazin-1-yl)-2-oxo-1,2-dihydro-1,5-naphthyridine-3-carbonitrile]
- IC50 [1]: 26000 nM
- IC50 [2]: 53000 nM
- IC50 ([3]; Homo sapiens, Raji): 220 nM

SMILES: Cn1c(=O)c(C#N)c(N2CCN(Cc3ccc(Cl)c(F)c3)CC2)c2nc(Cl)ccc21 [Example 326, 6-chloro-4-{4-[(4-chloro-3-fluorophenyl)methyl]piperazin-1-yl}-1-methyl-2-oxo-1,2-dihydro-1,5-naphthyridine-3-carbonitrile]
- IC50 [1]: > 240000 nM
- IC50 [2]: 1900 nM
- IC50 ([3]; Homo sapiens, Raji): 380 nM

SMILES: Cc1ccccc1CN1CCN(c2c(C#N)c(=O)n(C)c3ccc(Cl)nc23)CC1 [Example 346, 6-chloro-1-methyl-4-{4-[(2-methylphenyl)methyl]piperazin-1-yl}-2-oxo-1,2-dihydro-1,5-naphthyridine-3-carbonitrile]
- IC50 [1]: > 240000 nM
- IC50 [2]: 5300 nM
- IC50 ([3]; Homo sapiens, Raji): 1100 nM

SMILES: COc1cccc(CN2CCN(c3c(C#N)c(=O)n(C)c4ccc(Br)nc34)CC2)c1O [Example 368, 6-bromo-4-{4-[(2-hydroxy-3-methoxyphenyl)methyl]piperazin-1-yl}-1-methyl-2-oxo-1,2-dihydro-1,5-naphthyridine-3-carbonitrile]
- IC50 [1]: > 240000 nM
- IC50 [2]: 400 nM
- IC50 ([3]; Homo sapiens, Raji): > 100000 nM

SMILES: COc1ccccc1CN1CCN(c2c(C#N)c(=O)n(C)c3ccc(Br)nc23)CC1 [Example 297, 6-bromo-4-{4-[4(2-methoxyphenyl)methyl]piperazin-1-yl}-1-methyl-2-oxo-1,2-dihydro-1,5-naphthyridine-3-carbonitrile]
- IC50 [1]: > 240000 nM
- IC50 [2]: 890 nM
- IC50 ([3]; Homo sapiens, Raji): 160 nM

SMILES: Cn1c(=O)c([N+](=O)[O-])c(N2CCN(C(c3ccccc3)c3ccccc3)CC2)c2nc(Br)ccc21 [Example 52, 4-(4-benzhydrylpiperazin-1-yl)-6-bromo-1-methyl-3-nitro-1,5-naphthyridin-2(1H)-one]
- IC50 [1]: 150000 nM
- IC50 [2]: 7800 nM
- IC50 ([3]; Homo sapiens, Raji): 56 nM
